Structures can show the parent of a compound that is named as a salt. Bounds are passed on as bounds.

The target of assay [1] is T1, PARP1 (His6-PARP1, full length) (Homo sapiens, UniProt P09874).
T1 construct: His6-PARP1 (full length) can be substituted for His6-TNKS 1
Description: TR-FRET Binding Assay (Example 71), PARP1. To be noted: TR-FRET assay of Example 71 with His6-PARP1. As for the experimental part: (§1) μHTS-TNKS-IWR2 TR-FRET Binding Assay (10 μL/well in BD1536-well plate, a single point)
Tankyrase 1 (TNKS1): 184.3 μM=5.2 mg/mL His6-TNKS1, MW=28.2 KDa (construct: 1088-1327, 1266M) in 20 mM Tris pH 8, 150 mM NaCl, 10% glycerol, and 0.5 mM TCEP. Alternatively, His6-tankyrase 2 (construct: 934-1166) (His6-TNKS2) or His6-PARP1 (full length) can be substituted for His6-TNKS 1.
(§2) Assay buffer 1a (AB1a) for TNKS dilution: 50 mM Tris, pH 7.4, 100 mM sodium chloride solution, 1 mM magnesium chloride solution, 1 mM DL-dithiothreitol solution, 0.2 mg/mL bovine serum albumin solution, 0.025% NP-40. Assay buffer 1b (AB 1b) for Biotin-IWR2 dilution: 50 mM Tris, pH 7.4, 100 mM sodium chloride solution, 1 mM magnesium chloride solution, 1 mM DL-dithiothreitol solution, 0.2 mg/mL bovine serum albumin solution, 0.05% NP-40 Assay buffer 1c (AB 1c) for compound dilution: 50 mM Tris, pH 7.4, 100 mM sodium chloride solution, 1 mM magnesium chloride solution, 1 mM DL-dithiothreitol solution, 0.2 mg/mL bovine serum albumin solution Assay buffer 2 (AB2) for Eu/APC: 50 mM Tris, pH 7.4, 100 mM sodium chloride solution, 1 mM magnesium chloride solution, 0.2 mg/mL bovine serum albumin solution
Prepare Biotinylated IWR2 stock solution (3.33× stock) for TOTL and compound wells: 200 nM Biotin-IWR2 in 5% DMSO/AB1b buffer
Prepare BLANK well stock solution: 5% DMSO/AB1b buffer Prepare POSITIVE CONTROL well stock solution (3.33× stock): 200 nM XAV939 in 200 nM Biotin-IWR2/5% DMSO/AB1b buffer Prepare TNKS1 stock solution (5× stock): 300 nM TNKS in AB1a buffer. (Alternatively, use TNKS2 or PARP1 stock solutions.) Prepare Eu/APC stock solution (5× stock): 3.5 nM Eu-SA/50 nM APC-His6Ab in AB2 buffer.
(§3) Add 25 μL/well 1.5% DMSO/AB1c buffer in each compound well to the compound concentration at 74 μM in 8.8% DMSO/AB1c buffer or in the 2 μL DMSO CONTROL wells (BLANK, TOTAL and POSITIVE wells) in the compound plate. Transfer 3 μL/well of above solution (solution 1,2,3) to an empty assay plate (BD1536-well plate) as follows: TOTAL and cpd wells: Solution 1 (Biotin-IWR2): BLANK wells: Solution 2 (No Biotin-IWR2): POSITIVE CONTROL wells: Solution 3 (Biotin-IWR2XAV939) Transfer 3 μL/well of the above diluted compound solutions or compound dilution buffer to the above assay plate. Add 2 μL/well of 300 nM TNKS stock solution (4) to every well in the above assay plate. Centrifuge the assay plate at 2100 rpm for 2 min. Incubate the assay plate at 26° C. for 30 minutes. Add 2 μL/well 3.5 nMEu/50 nM APC solution (5) to every well in the above assay plate. Centrifuge the assay plate at 2100 rpm for 2 min. Incubate the assay plate at 26° C. for 60 min. Read the assay plate immediately at excitation wavelength of 330 nm and emission wavelength of 615 and 665 nM in time resolved fluorescence mode.
. Representative compound data for the PARP1 assay is in TABLE 2 (below) Values are in μM.

In assay [2] the target is T2, tankyrase 2 (His6-TNKS2) (Homo sapiens, UniProt Q9H2K2).
T2 construct: His6-tankyrase 2 (construct: 934-1166) (His6-TNKS2)
T2 sequence (Q9H2K2 934-1166): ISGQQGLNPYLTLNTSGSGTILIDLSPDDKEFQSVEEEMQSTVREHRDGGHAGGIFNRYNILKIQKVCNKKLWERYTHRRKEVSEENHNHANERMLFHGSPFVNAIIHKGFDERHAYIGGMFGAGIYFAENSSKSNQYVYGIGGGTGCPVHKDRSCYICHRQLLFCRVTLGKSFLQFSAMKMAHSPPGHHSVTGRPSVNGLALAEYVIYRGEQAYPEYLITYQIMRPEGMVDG
The assay can be described thus: μHTS-TNKS-IWR2 TR-FRET Binding Assay (Example 71), TNKS2. The conditions noted are these: footnote 1: Tankyrase 1 and 2 inhibition assay in Example 71 (TR-FRET). As to the method: as §1
Biotin-4-((1S,2R,6S,7R)-3,5-Dioxo-4-aza-tricyclo[5.2.1.0*2,6*]dec-8-en-4-yl)-N-(4-methyl-quinolin-8-yl)-benzamide (Biotin-IWR2): 10 mM Biotin-IWR2 stock in DMSO, stored at −20° C. Positive control: 10 mM 2-(4-Trifluoromethyl-phenyl)-3,5,7,8-tetrahydro-thiopyrano[4,3-d]pyrimidin-4-one (XAV939) in DMSO, stored at −20° C.
as §2
as §3, with “Transfer” for “Add 25 μL/well 1.5% DMSO/AB1c buffer in each compound well to the compound concentration at 74 μM in 8.8% DMSO/AB1c buffer or in the 2 μL DMSO CONTROL wells (BLANK, TOTAL and POSITIVE wells) in the compound plate. Transfer”, “min.” for “min. Read the assay plate immediately at excitation wavelength of 330 nm and emission wavelength of 615 and 665 nM in time resolved fluorescence mode.”
In general terms: In TR-FRET formats the signal depends on donor and acceptor labels being close together.

Assay [3] addresses T3, Tankyrase 1 (TNKS1) (Homo sapiens, UniProt O95271).
T3 construct: His6-TNKS1, MW=28.2 KDa (construct: 1088-1327, 1266M)
Description: μHTS-TNKS-IWR2 TR-FRET Binding Assay (Example 71), TNKS1. As for the experimental part:
as §1, §2
as §3, with “Transfer” for “Add 25 μL/well 1.5% DMSO/AB1c buffer in each compound well to the compound concentration at 74 μM in 8.8% DMSO/AB1c buffer or in the 2 μL DMSO CONTROL wells (BLANK, TOTAL and POSITIVE wells) in the compound plate. Transfer”, “min.” for “min. Read the assay plate immediately at excitation wavelength of 330 nm and emission wavelength of 615 and 665 nM in time resolved fluorescence mode.”

T1 sequence (P09874 whole entry, species assumed): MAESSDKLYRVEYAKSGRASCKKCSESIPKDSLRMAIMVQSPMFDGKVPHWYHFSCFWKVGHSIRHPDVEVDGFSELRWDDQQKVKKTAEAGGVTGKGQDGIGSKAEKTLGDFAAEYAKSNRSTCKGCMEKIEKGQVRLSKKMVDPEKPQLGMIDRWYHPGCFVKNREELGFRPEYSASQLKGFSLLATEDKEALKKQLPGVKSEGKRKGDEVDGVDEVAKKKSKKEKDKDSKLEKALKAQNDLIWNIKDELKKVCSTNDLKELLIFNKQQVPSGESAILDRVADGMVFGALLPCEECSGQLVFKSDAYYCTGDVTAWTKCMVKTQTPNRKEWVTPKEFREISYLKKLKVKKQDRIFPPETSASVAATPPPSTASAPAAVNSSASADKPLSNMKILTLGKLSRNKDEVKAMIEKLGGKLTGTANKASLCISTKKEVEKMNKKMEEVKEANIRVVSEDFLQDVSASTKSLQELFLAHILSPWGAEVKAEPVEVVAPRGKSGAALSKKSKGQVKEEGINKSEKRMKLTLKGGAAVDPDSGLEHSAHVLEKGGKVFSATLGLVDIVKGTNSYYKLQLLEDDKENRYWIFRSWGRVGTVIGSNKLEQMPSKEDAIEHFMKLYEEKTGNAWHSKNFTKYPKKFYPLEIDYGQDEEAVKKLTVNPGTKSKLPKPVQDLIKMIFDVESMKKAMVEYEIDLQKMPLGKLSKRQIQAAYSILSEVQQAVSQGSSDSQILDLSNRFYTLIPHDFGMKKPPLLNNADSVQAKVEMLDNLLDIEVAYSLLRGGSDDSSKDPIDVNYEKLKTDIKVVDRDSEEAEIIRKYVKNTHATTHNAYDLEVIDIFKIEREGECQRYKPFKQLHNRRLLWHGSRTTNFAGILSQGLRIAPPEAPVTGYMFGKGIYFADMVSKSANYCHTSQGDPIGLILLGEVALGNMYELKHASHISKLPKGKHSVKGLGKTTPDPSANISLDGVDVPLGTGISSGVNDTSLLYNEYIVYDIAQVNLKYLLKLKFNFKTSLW
T3 sequence (O95271 1088-1327): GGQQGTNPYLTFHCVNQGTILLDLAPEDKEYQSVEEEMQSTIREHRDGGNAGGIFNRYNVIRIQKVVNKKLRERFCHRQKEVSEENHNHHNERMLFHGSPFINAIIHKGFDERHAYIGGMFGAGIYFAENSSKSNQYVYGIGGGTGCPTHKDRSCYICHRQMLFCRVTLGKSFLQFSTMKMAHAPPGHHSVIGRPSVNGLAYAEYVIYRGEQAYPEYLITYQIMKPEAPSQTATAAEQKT

For `O=c1[nH]c2c(c3ccccc13)COC(C1CCOC1)C2` (mixture of isomers) [Compound I-59, 2-(Tetrahydro-furan-3-yl)-1,2,4,10-tetrahydro-3-oxa-10-aza-phenanthren-9-one], the half-maximal inhibitory concentration (IC50) (in general, the concentration at which inhibition is half-maximal) amounted to 280 nM in assay [1], 34.4 nM in assay [2] and 33.6 nM in assay [3].
As for `CC(C)C1Cc2[nH]c(=O)c3ccccc3c2CO1` (racemic) [Compound I-2, rac-2-Isopropyl-1,2,4,10-tetrahydro-3-oxa-10-aza-phenanthren-9-one], the IC50 in assay [1] worked out at 34.3 nM.
On the same count and under the same terms, as for `CC(C)C1Cc2[nH]c(=O)c3cccnc3c2CO1` (racemic) [Compound I-4, rac-2-Isopropyl-1,2,4,10-tetrahydro-3-oxa-5,10-diaza-phenanthren-9-one], the figure is 345 nM.
For the compound `CC(C)C1Cc2[nH]c(=O)c3sccc3c2CO1` (racemic) [Compound I-5, rac-7-Isopropyl-5,6,7,9-tetrahydro-8-oxa-3-thia-5-aza-cyclopenta[a]naphthalen-4-one], the values for the IC50 in assay [1], in assay [2] and in assay [3] were 82.9 nM, 92.1 nM and 70.3 nM, respectively.
The matching figures for `CC(C)C1Cc2[nH]c(=O)c3cc(Cl)ccc3c2CO1` (racemic) [Compound I-6, rac-7-Chloro-2-isopropyl-1,2,4,10-tetrahydro-3-oxa-10-aza-phenanthren-9-one]: 58.2 nM, 73.4 nM and 44 nM.
Taken in the same sequence, the figures for `O=c1[nH]c2c(c3ccccc13)COC(C1CCCC1)C2` (racemic) [Compound I-7, rac-2-Cyclopentyl-1,2,4,10-tetrahydro-3-oxa-10-aza-phenanthren-9-one] were 119 nM, 43 nM and 34.2 nM.
As for `CC(C)(C)C1Cc2[nH]c(=O)c3ccccc3c2CO1` (racemic) [Compound I-8, rac-2-tert-Butyl-1,2,4,10-tetrahydro-3-oxa-10-aza-phenanthren-9-one], the half-inhibitory concentration (IC50) in assay [1] came to 176 nM.
`CC(C)C1Cc2[nH]c(=O)c3ccoc3c2CO1` (racemic) [Compound I-10, rac-7-Isopropyl-5,6,7,9-tetrahydro-1,8-dioxa-5-aza-cyclopenta[a]naphthalen-4-one]: the IC50 is 80.1 nM in assay [1], 231 nM in assay [2] and 93.7 nM in assay [3].
Taken in the same sequence, the figures for `O=c1[nH]c2c(c3ccccc13)COC(CCc1ccccc1)C2` (racemic) [Compound I-13, rac-2-Phenethyl-1,2,4,10-tetrahydro-3-oxa-10-aza-phenanthren-9-one] were 2670 nM, 52.1 nM and 40.8 nM.
The matching figures for `CC(C)C1Cc2[nH]c(=O)c3ccncc3c2CO1` (racemic) [Compound I-14, rac-7-Isopropyl-5,7,8,9-tetrahydro-6-oxa-3,9-diaza-phenanthren-10-one]: 680 nM, 204 nM and 97.2 nM.
The matching figures for `CC(C)C1Cc2[nH]c(=O)c3cnccc3c2CO1` (racemic) [Compound I-15, rac-7-Isopropyl-5,7,8,9-tetrahydro-6-oxa-2,9-diaza-phenanthren-10-one]: greater than 50000 nM, 68.8 nM and 50.8 nM.
Take `CC(C)C1Cc2[nH]c(=O)c3ccc([N+](=O)[O-])cc3c2CO1` (racemic) [Compound I-16, rac-2-Isopropyl-6-nitro-1,2,4,10-tetrahydro-3-oxa-10-aza-phenanthren-9-one]: the IC50 came out at 35.6 nM in assay [1], 2700 nM in assay [2] and 404 nM in assay [3].
In assay [1], `Cc1cccc2c(=O)[nH]c3c(c12)COC(C(C)C)C3` (racemic) [Compound I-17, rac-2-Isopropyl-5-methyl-1,2,4,10-tetrahydro-3-oxa-10-aza-phenanthren-9-one] returned an IC50 of 107 nM.
Regarding `COC(=O)c1ccc2c(=O)[nH]c3c(c2c1)COC(C(C)C)C3` (racemic) [Compound I-19, rac-2-Isopropyl-9-oxo-1,4,9,10-tetrahydro-2H-3-oxa-10-aza-phenanthrene-6-carboxylic acid methyl ester], the values for the half-inhibitory concentration (IC50) in assay [1], in assay [2] and in assay [3] were 73.5 nM, 386 nM and 84.1 nM, respectively.
Taken in the same sequence, the figures for `CC1(C2Cc3[nH]c(=O)c4ccccc4c3CO2)CCCCC1` (racemic) [Compound I-20, rac-2-(1-Methyl-cyclohexyl)-1,2,4,10-tetrahydro-3-oxa-10-aza-phenanthren-9-one] were 61.1 nM, 30.5 nM and 25.5 nM.
The matching figures for `CC(C)(C)OC(=O)N1CCC(C2Cc3[nH]c(=O)c4ccccc4c3CO2)CC1` (racemic) [Compound I-21, rac-4-(9-Oxo-1,4,9,10-tetrahydro-2H-3-oxa-10-aza-phenanthren-2-yl)-piperidine-1-carboxylic acid tert-butyl ester]: 15.9 nM, 46.7 nM and 33.5 nM.
The matching figures for `O=c1[nH]c2c(c3ccccc13)COC(C1CCNCC1)C2` (racemic) [Compound I-22, rac-2-Piperidin-4-yl-1,2,4,10-tetrahydro-3-oxa-10-aza-phenanthren-9-one, trifluoroacetate]: greater than 50000 nM, 109 nM and 88.8 nM.
`CC(C)(CO)C1Cc2[nH]c(=O)c3ccccc3c2CO1` (racemic) [Compound I-30, rac-2-(2-Hydroxy-1,1-dimethyl-ethyl)-1,2,4,10-tetrahydro-3-oxa-10-aza-phenanthren-9-one] had a concentration for half-maximal inhibition (IC50) in assay [1] of 53.3 nM. That is a double-digit nanomolar value.
The same measure, in the same setting: as for `O=C(C1COC1)N1CCC(C2Cc3[nH]c(=O)c4ccccc4c3CO2)CC1` (racemic) [Compound I-52, rac-2-[1-(Oxetane-3-carbonyl)-piperidin-4-yl]-1,2,4,10-tetrahydro-3-oxa-10-aza-phenanthren-9-one], the figure is 32.8 nM; as for `Cc1cccc2c(=O)[nH]c3c(c12)CO[C@H](C(C)(C)CO)C3` (single isomer, unassigned) [Compound I-66], 89.7 nM; as for `Cc1cccc2c(=O)[nH]c3c(c12)CO[C@@H](C(C)(C)CO)C3` (single isomer, unassigned) [Compound I-67], 70 nM.
For `CS(=O)(=O)N1CCC(C2Cc3[nH]c(=O)c4ccccc4c3CO2)C1` (stereo not drawn) [Compound I-39, 2-(1-Methanesulfonyl-pyrrolidin-3-yl)-1,2,4,10-tetrahydro-3-oxa-10-aza-phenanthren-9-one], in assay [1], the IC50 stood at 36.5 nM.
